Results as given in US20240174618A1, “SUBSTITUTED (2-HETEROARYLOXYPHENYL)SULFONATES, SALTS THEREOF AND THEIR USE AS HERBICIDAL AGENTS” (Bayer Aktiengesellschaft, priority 2021, published 2024).

Tests used:
Assay type in all cases: in vivo
Setaria viridis (SETVI) = assay: A. Herbicidal pre-emergence efficacy, SETVI
Procedure, shortened: (§1)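 Pre-emergence soil-surface spray in sandy loam pots, WP/EC in water plus 0.5% additive, 600 L/ha. Visual % damage rating after about 3 weeks in greenhouse vs. untreated; 0% = control-like, 100% = dead plants. Rates up to 1280 g/ha.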

[1] = system: Echinochloa crus-galli (ECHCG); assay: B. Herbicidal post-emergence efficacy, ECHCG; conditions: rated visually after about 3 weeks
Procedure, shortened: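 Post-emergence foliar spray, at application rates of 1280 g/ha or less, on one-leaf-stage plants 2–3 weeks post-sowing, using aqueous WP or EC suspensions with 0.5% additive at 600 L/ha. Visual percent efficacy relative to untreated plants scored roughly 3 weeks later in the greenhouse.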

[2] = system: Matricaria inodora (MATIN); assay: A. Herbicidal pre-emergence efficacy, MATIN
Procedure, shortened: as §1

Kochia scoparia (KCHSC) = assay: A. Herbicidal pre-emergence efficacy, KCHSC
Procedure, shortened: as §1

Veronica persica (VERPE) [3] = assay: C. Herbicidal pre-emergence efficacy, VERPE; conditions: scored after about 3 weeks
Procedure, shortened: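 Pre-emergence test: formulated compounds sprayed as aqueous suspension or emulsion with 0.5% additive at 600 l/ha onto soil covering sown seeds, at rates corresponding to 320 g/ha or less. After about 3 weeks in greenhouse, efficacy scored visually as percent versus untreated controls (100% = plants dead).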

Veronica persica (VERPE) [4] = assay: A. Herbicidal pre-emergence efficacy, VERPE; conditions: for Pre-emergence efficacy against VERPE: dosage 80 g/ha
Procedure, shortened: as §1

[5] = system: Echinochloa crus-galli (ECHCG); assay: A. Herbicidal pre-emergence efficacy, ECHCG; conditions: scored visually after about 3 weeks vs untreated controls
Procedure, shortened: as §1

[6] = 320 g/ha, scored visually after about 3 weeks vs untreated controls
[7] = pre-emergence, dosage 1280 g/ha
[8] = 80 g/ha, scored visually after about 3 weeks vs untreated controls

SMILES | Pre-emergence efficacy against SETVI (Setaria viridis (SETVI); dosage 80 g/ha) | Pre-emergence efficacy against SETVI (Setaria viridis (SETVI); dosage 320 g/ha) | Pre-emergence efficacy against SETVI (Setaria viridis (SETVI); dosage 1280 g/ha) | Post-emergence efficacy against ECHCG in % ([1]; 80 g/ha) | Post-emergence efficacy against ECHCG in % ([1]; 320 g/ha) | Post-emergence efficacy against ECHCG in % ([1]; 1280 g/ha) | Pre-emergence efficacy against MATIN [2, 6] | Pre-emergence efficacy against MATIN [2, 7] | Pre-emergence efficacy against KCHSC (Kochia scoparia (KCHSC); [8]) | Pre-emergence efficacy against KCHSC (Kochia scoparia (KCHSC); pre-emergence, dosage 320 g/ha) | Pre-emergence efficacy against KCHSC (Kochia scoparia (KCHSC); [7]) | Pre-emergence efficacy against VERPE (Veronica persica (VERPE) [3]; 80 g/ha) | Pre-emergence efficacy against VERPE (Veronica persica (VERPE) [3]; 320 g/ha) | Pre-emergence efficacy against VERPE in % (Veronica persica (VERPE) [4]; 320 g/ha) | Pre-emergence efficacy against VERPE in % (Veronica persica (VERPE) [4]; 1280 g/ha) | Pre-emergence efficacy against VERPE (Veronica persica (VERPE) [4]) | Pre-emergence efficacy against ECHCG ([5]; 80 g/ha) | Pre-emergence efficacy against ECHCG ([5]; 320 g/ha) | Pre-emergence efficacy against ECHCG ([5]; 1280 g/ha)
O=S(=O)(CCCC(F)(F)F)Oc1c(F)cccc1Oc1ncc(F)cn1 [Example I-42] | 100% | 100% | 100% | 100% | 100% | 100% | 90% | 100% | 100% | 100% | 100% | 100% | 100% | 100% | 100% | 100% | 100% | 100% | 100%
O=S(=O)(CC1CC1)Oc1ccccc1Oc1ncc(Cl)cn1 [Example I-23] | – | – | 100% | – | 90% | 90% | 90% | 100% | 90% | 100% | 100% | 100% | 100% | 100% | 100% | 90% | 90% | 90% | 90%
CCCCS(=O)(=O)Oc1ccccc1Oc1ncc(Cl)cn1 [Example I-6] | 90% | 90% | 100% | – | 90% | 90% | – | 100% | 90% | 90% | 100% | 80% | 90% | – | 90% | – | 100% | 100% | 100%
O=S(=O)(CCCC(F)(F)C(F)(F)F)Oc1c(F)cccc1Oc1ncc(Cl)cn1 [Example I-68] | 90% | 100% | 100% | – | 90% | 100% | 100% | 100% | 90% | 100% | 100% | 90% | 90% | 100% | 100% | – | – | 90% | 100%
O=S(=O)(CCCCl)Oc1ccccc1Oc1ncc(F)cn1 [Example I-5] | 100% | 100% | 100% | 90% | 100% | 100% | 90% | 100% | 100% | 100% | 100% | 100% | 100% | 100% | 100% | 90% | – | 100% | 100%
